# Reference: patent EP4703359A1 (Shanghai Simr Biotechnology Co., Ltd., priority 2023, dated 2024)
# Biological target: T1, α2-GABAA receptor (Homo sapiens, UniProt P18507+P47869)
# T1 construct: expressed in transfected cells
# Assay: Whole-cell patch-clamp electrophysiology, positive allosteric modulatory activity in α2-GABAAR-HEK293 cells
# Format: cell-based
# Details: compound 100 nM; GABA 0.10 to 0.11 µM (approximately EC7-8); normalized to reference compound CVL-865 (= 100%)
# From the text: The α subunit, β subunit, and γ subunit are indispensable for forming a fully functional GABAA receptor. In this example, HEK293 cells stably expressing α2-GABAA receptors (α2-GABAAR) were constructed and screened respectively via liposome transfection (Felgner, P.L., et al. Proceedings of the National Academy of Sciences, 1987, 84: 7413-7417). The α2-GABAAR-HEK293 cell model co-expresses the α2 subunit (protein sequence referenced under GenBank accession number: NM_000807.4), β3 subunit (protein sequence referenced under GenBank accession number: NM_000814.5), and γ2 subunit (protein sequence referenced under GenBank accession number: NM_000816.3).
# The above cell lines were subcultured. α2-GABAAR-HEK293 cells were amplified for testing the affinity of compounds to the benzodiazepine (BZD) site of GABAA receptors. Some of the α2-GABAAR-HEK293 cells in suspension during subculturing were plated on glass slides pre-treated with Poly-D-Lysine for electrophysiological testing (method reference: Patent CN 107344936 A, paragraph 0586).
# The positive modulatory activity of the test drug on the α2-GABAA receptor was assessed using electrophysiological methods. The specific approach is as follows:
# With regards to the concentration of the compound, the final concentration of all compounds used in the screening was 100 nM. For cell lines expressing α2-GABAA receptors, the GABA concentration was 0.10 to 0.11 µM (approximately EC7-8). Electrophysiological experiments were conducted using the whole-cell patch-clamp technique, which can be referenced to the method reported in the literature (Nickolls, S. A., et al. *British Journal of Pharmacology*, 2018, 175: 708-725). The composition of the extracellular solution (ECS) for electrophysiology was as follows: 150 mM NaCl, 5 mM KCl, 2.5 mM CaCl2, 1 mM MgCl2, 10 mM HEPES, and 10 mM glucose (pH 7.4). The intracellular solution (ICS) for electrophysiology was formulated as follows: 140 mM CsCl, 11 mM EGTA, 10 mM HEPES, 2 mM CaCl2, 1 mM MgCl2, 4 mM MgATP, and 2 mM TEA (pH 7.3). GABA (γ-aminobutyric acid) powder was dissolved in pure water to prepare a stock solution, which was subsequently diluted in ECS. The compound was initially dissolved in dimethyl sulfoxide to prepare a 4 mM stock solution, followed by stepwise dilution into GABA-ECS at corresponding concentrations. All solutions were freshly prepared prior to electrophysiological testing.
# Electrophysiological signals were acquired using an EPC 10 amplifier and PatchMaster software (HEKA) or an Axon 700B amplifier and Clampex software (AXON). The recording electrode was pulled from borosilicate glass, with an electrode resistance of 4 to 6 MΩ. Extracellular administration was performed using the ALA-VC-8PG™ system. A single independently growing cell was selected. After forming a tight seal between the glass electrode and the cell membrane, the membrane was ruptured to establish the whole-cell configuration. The cell membrane potential was clamped at -60 mV and recorded in Gap-free mode. During the test, extracellular fluid was first applied externally for approximately 20 seconds. After the baseline (Iprebaseline) was stabilized, the extracellular solution was switched to GABA-ECS. At this point, the current induced by GABA (Igaba) can be detected. After approximately 10 to 20 seconds, once the current had stabilized, the extracellular solution was switched to a mixture of the compound and GABA-ECS until the current induced by both the compound and GABA (Itreatment) could be detected. Finally, the solution was switched to extracellular fluid, and the recording was terminated after 20 to 40 seconds. Only cells with a stable baseline, an absolute control current magnitude (Igaba - Iprebaseline) greater than 40 pA, and a relatively stable current within 10 to 20 seconds were used for compound testing. […]
# T1 sequence (P47869 29-451): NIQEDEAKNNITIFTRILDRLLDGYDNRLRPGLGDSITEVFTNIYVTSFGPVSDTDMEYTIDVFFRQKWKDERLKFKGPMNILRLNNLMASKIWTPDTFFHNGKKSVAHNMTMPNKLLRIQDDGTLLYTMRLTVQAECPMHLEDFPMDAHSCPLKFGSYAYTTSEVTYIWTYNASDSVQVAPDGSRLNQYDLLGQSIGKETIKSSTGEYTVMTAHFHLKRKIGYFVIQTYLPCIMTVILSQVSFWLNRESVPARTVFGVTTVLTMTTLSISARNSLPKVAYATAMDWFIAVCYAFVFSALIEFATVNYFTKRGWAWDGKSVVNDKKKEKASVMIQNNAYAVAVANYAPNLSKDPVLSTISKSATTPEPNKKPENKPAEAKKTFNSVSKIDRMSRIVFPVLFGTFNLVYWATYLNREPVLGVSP
# T1 sequence (P18507 40-467 isoform P18507-1 limits assumed): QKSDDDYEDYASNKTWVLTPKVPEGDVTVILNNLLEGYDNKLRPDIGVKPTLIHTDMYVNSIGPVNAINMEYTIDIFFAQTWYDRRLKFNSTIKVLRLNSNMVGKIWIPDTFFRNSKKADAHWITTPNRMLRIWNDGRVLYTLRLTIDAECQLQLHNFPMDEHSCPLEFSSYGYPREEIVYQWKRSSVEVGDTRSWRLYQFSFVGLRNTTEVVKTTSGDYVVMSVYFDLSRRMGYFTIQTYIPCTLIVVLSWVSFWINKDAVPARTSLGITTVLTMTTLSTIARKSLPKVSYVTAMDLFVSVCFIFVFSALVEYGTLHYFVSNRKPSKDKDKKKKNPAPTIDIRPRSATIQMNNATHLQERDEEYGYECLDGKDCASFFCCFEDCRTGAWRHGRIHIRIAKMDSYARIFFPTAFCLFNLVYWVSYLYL
# T1 sequence (P28472 26-473 partner): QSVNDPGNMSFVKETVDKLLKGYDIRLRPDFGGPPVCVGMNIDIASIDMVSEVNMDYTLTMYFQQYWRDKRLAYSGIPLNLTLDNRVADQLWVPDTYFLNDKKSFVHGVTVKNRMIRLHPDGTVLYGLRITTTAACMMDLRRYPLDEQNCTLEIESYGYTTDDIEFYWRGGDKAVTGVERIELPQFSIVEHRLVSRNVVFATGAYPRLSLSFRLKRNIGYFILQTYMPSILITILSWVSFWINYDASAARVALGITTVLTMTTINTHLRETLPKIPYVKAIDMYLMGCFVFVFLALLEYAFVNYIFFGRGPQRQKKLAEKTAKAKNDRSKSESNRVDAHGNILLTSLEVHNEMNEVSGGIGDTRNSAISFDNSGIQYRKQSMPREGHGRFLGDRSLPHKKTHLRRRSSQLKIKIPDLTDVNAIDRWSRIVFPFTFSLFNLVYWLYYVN
row,SMILES,α2-GABAAR Positive allosteric modulatory activity [%]
1,CCCNC(=O)c1nc2c(CC(C)C)c(F)ccn2c1N [Example 119],33
2,"COc1cccc(F)c1-c1c(F)ccn2c(N)c(C(=O)NCC=C(F)F)nc12 [Example 131, 3-Amino-N-(3,3-difluoroallyl)-7-fluoro-8-(2-fluoro-6-methoxyphenyl)imidazo[1,2-a]pyridine-2-carboxamide]",82
3,CCCNC(=O)c1nc2c(-c3cc(F)cc(C#N)c3)c(F)ccn2c1N [Example 127],77

# Same assay, conditions: compound 100 nM; GABA 0.10 to 0.11 µM (approximately EC7-8); normalized to reference compound CVL-865 (= 100%); read-out: α2-GABAAR Positive allosteric modulatory activity
row,SMILES,Emax at 0.1 µM [%]
1,"CCCNC(=O)c1nc2c(-c3c(F)ccc4ncoc34)cccn2c1N [Example 100, 3-Amino-8-(6-fluorobenzoxazol-7-yl)-N-propylimidazopyridine-2-carboxamide]",94
2,CCCNC(=O)c1nc2c(-c3cccc(-c4ccnnc4)c3)cccn2c1N [Example 44],31
3,"CCCCNC(=O)c1nc2c(-c3c(F)cccc3OC)c(F)ccn2c1N [Example 124, 3-Amino-N-butyl-7-fluoro-8-(2-fluoro-6-methoxyphenyl)imidazo[1,2-a]pyridine-2-carboxamide]",90
4,"CCCNC(=O)c1nc2c(-c3c(F)cccc3OC)c(Cl)ccn2c1N [Example 130, 3-Amino-7-chloro-8-(2-fluoro-6-methoxyphenyl)-N-propylimidazo[1,2-a]pyridine-2-carboxamide]",53
5,"[2H]c1ccn2c(N)c(C(=O)NCCC)nc2c1-c1c(F)cccc1OC [Example 150, 3-Amino-8-(2-fluoro-6-methoxyphenyl)-N-propylimidazo[1,2-a]pyridine-7-deuterio-2-carboxamide]",85
6,"COCCNC(=O)c1nc2c(-c3c(F)cccc3OC)cccn2c1N [Example 24, 3-Amino-8-(2-fluoro-6-methoxyphenyl)-N-(2-methoxyethyl)imidazo[1,2-a]pyridine-2-carboxamide]",39
7,"CCCNC(=O)c1nc2c(-c3cccc(N4CCOC4=O)c3)cccn2c1N [Example 41, 3-Amino-8-(3-(2-oxooxazolidin-3-yl)phenyl)-N-propylimidazo[1,2-a]pyridine-2-carboxamide]",30
8,"CC1CN(C(=O)c2nc3c(-c4c(F)ccc5ccoc45)cccn3c2N)C1 [Example 102, (3-Amino-8-(6-fluorobenzofuran-7-yl)imidazo[1,2-a]pyridin-2-yl)(3-methylazetidin-1-yl)methanone]",44
9,"COc1cccc(F)c1-c1cccn2c(N)c(C(=O)NCc3ccccn3)nc12 [Example 20, 3-Amino-8-(2-fluoro-6-methoxyphenyl)-N-(pyridin-2-methyl)imidazo[1,2-a]pyridine-2-carboxamide]",35
10,"CCCNC(=O)c1nc2c(-c3cnccc3OC)c(F)ccn2c1N [Example 114, 3-Amino-7-fluoro-8-(4-methoxypyridin-3-yl)-N-propylimidazo[1,2-a]pyridine-2-carboxamide]",124
11,"CCCNC(=O)c1nc2c(-c3cnc(OC)nc3OC)cccn2c1N [Example 81, 3-Amino-8-(2,4-dimethoxypyrimidin-5-yl)-N-propylimidazo[1,2-a]pyridine-2-carboxamide]",48
12,"CCCNC(=O)c1nc2c(-c3cccnc3C)cccn2c1N [Example 142, 3-Amino-8-(2-methylpyridin-3-yl)-N-propylimidazo[1,2-a]pyridine-2-carboxamide]",45
13,"CCCNC(=O)c1nc2c(-c3cnoc3C)cccn2c1N [Example 141, 3-Amino-8-(5-methyl-1,2-oxazol-4-yl)-N-propylimidazo[1,2-a]pyridine-2-carboxamide]",44
14,"CCCNC(=O)c1nc2c(-c3c(C#N)cccc3OC)cccn2c1N [Example 73, 3-Amino-8-(2-cyano-6-methoxyphenyl)-N-propylimidazo[1,2-a]pyridine-2-carboxamide]",64
15,"CCCNC(=O)c1nc2c(-c3c(F)cccc3OC)cc(F)cn2c1N [Example 155, 3-Amino-6-fluoro-8-(2-fluoro-6-methoxyphenyl)-N-propylimidazo[1,2-a]pyridine-2-carboxamide]",56
16,"CCCNC(=O)c1nc2c(-c3cncc(C)c3)cccn2c1N [Example 87, 3-Amino-8-(5-methylpyridin-3-yl)-N-propylimidazo[1,2-a]pyridine-2-carboxamide]",48
17,"COc1cccc(F)c1-c1cccn2c(N)c(C(=O)Nc3cnn(C)c3)nc12 [Example 15, 3-Amino-8-(2-fluoro-6-methoxyphenyl)-N-(1-methyl-1H-pyrazol-4-yl)imidazo[1,2-a]pyridine-2-carboxamide]",61
18,"CCCNC(=O)c1nc2c(-c3cc(OC)nnc3OC)c(F)ccn2c1N [Example 117, 3-Amino-8-(3,6-dimethoxypyridazin-4-yl)-7-fluoro-N-propylimidazo[1,2-a]pyridine-2-carboxamide]",88
19,"C=CCNC(=O)c1nc2c(-c3c(F)cccc3OC)cccn2c1N [Example 30, N-Allyl-3-amino-8-(2-fluoro-6-methoxyphenyl)imidazo[1,2-a]pyridine-2-carboxamide]",81
20,"COc1cccc(F)c1-c1cccn2c(N)c(C(=O)NCCc3ccccc3)nc12 [Example 21, 3-Amino-8-(2-fluoro-6-methoxyphenyl)-N-phenethylimidazo[1,2-a]pyridine-2-carboxamide]",43
21,"CCCNC(=O)c1nc2c(-c3ccnc(C)c3)cccn2c1N [Example 86, 3-Amino-8-(2-methylpyridin-4-yl)-N-propylimidazo[1,2-a]pyridine-2-carboxamide]",73
22,"CCCNC(=O)c1nc2c(-c3c(C#N)cccc3OC)c(F)ccn2c1N [Example 118, 3-Amino-8-(2-cyano-6-methoxyphenyl)-7-fluoro-N-propylimidazo[1,2-a]pyridine-2-carboxamide]",51
23,"CCCNC(=O)c1nc2c(-c3cccnc3OC)c(F)ccn2c1N [Example 115, 3-Amino-7-fluoro-8-(2-methoxypyridin-3-yl)-N-propylimidazo[1,2-A]pyridine-2-carboxamide]",123
24,"CCCNC(=O)c1nc2c(-c3cc4cnn(C)c4cc3OC)cccn2c1N [Example 95, 3-Amino-8-(6-methoxy-1-methyl-1H-indazol-5-yl)-N-propylimidazo[1,2-a]pyridine-2-carboxamide]",27
25,"CCCNC(=O)c1nc2c(-c3cc(F)ccc3OC)c(F)ccn2c1N [Example 110, 3-Amino-7-fluoro-8-(5-fluoro-2-methoxyphenyl)-N-propylimidazo[1,2-a]pyridine-2-carboxamide]",141
26,"CCCNC(=O)c1nc2c(-c3c(F)cccc3COC)cccn2c1N [Example 65, 3-Amino-8-(2-fluoro-6-(methoxymethyl)phenyl)-N-propylimidazo[1,2-a]pyridine-2-carboxamide]",36
27,"COc1cccc(F)c1-c1cccn2c(N)c(C(=O)NCCO)nc12 [Example 22, 3-Amino-8-(2-fluoro-6-methoxyphenyl)-N-(2-hydroxyethyl)imidazo[1,2-a]pyridine-2-carboxamide]",25
28,"COc1cccc(F)c1-c1cccn2c(N)c(C(=O)Nc3ccccn3)nc12 [Example 14, 3-Amino-8-(2-fluoro-6-methoxyphenyl)-N-(pyridin-2-yl)imidazo[1,2-a]pyridine-2-carboxamide]",54
